The supplement of paper PMC6470124

Legend:
[1] = absolute recovery over mixed-bed multilayer solid-phase extraction; higher = better recovery; conditions: enrichment method: SPE
Method in brief: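 Wastewater (100–250 mL, adjusted to pH 6.5 and glass-fibre filtered) or 1000 mL unfiltered nanopure water was loaded on a three-layer mixed-bed cartridge and eluted with basic then acidic ethyl acetate/methanol. Standards were spiked before extraction, after it, or not at all, at 200 ng/L (water) or 1000 ng/L (wastewater), with class exceptions. Internal standards were added afterwards, then LC-HRMS/MS ran in both ionisation modes. Absolute recovery compares background-corrected response ratios of pre- versus post-spiked samples, averaged over at least two replicates.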

[2] = absolute recovery over vacuum-assisted evaporative concentration; higher = better recovery; conditions: enrichment method: VEC
Method in brief: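 Samples of influent (6 mL), effluent (15 mL) and surface or nanopure water (60 mL) were spiked with standards before or after concentration, or left unspiked, at 200 ng/L (nanopure/surface) or 1000 ng/L (wastewater), adjusted by class and compound. Concentration was by evaporation at 55 °C and 20 mbar to about 0.3 mL, followed by adjustment to 0.4 mL and centrifugation. Internal standards were then added for LC-HRMS/MS analysis. Absolute recovery was (response ratio pre − unspiked)/(post − unspiked) × 100, using averages of ≥ 2 replicates.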

[3] = LC retention time (Atlantis T3, 5-95% MeOH gradient, 0.1% formic acid); higher = more retained / less polar
Method in brief: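 Retention times were recorded for reference standards (purity ≥ 95%) on a polar reversed-phase C18 column (Atlantis T3, 3 × 150 mm, 3 μm) at 0.3 mL/min. Elution used water and methanol, each with 0.1% formic acid, in a gradient from 5 to 95% methanol over 17.5 min. Detection was by high-resolution tandem mass spectrometry on a QExactive Plus, with positive and negative electrospray in separate runs. Peaks were found and integrated in TraceFinder (5 ppm tolerance, at least three points per peak) and then checked by hand.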

Compound	absolute recovery ([1]; nanopure water)	absolute recovery ([1]; surface water)	absolute recovery ([1]; wastewater effluent)	absolute recovery ([1]; wastewater influent)	absolute recovery ([2]; wastewater effluent)	absolute recovery ([2]; wastewater influent)	LC retention time [3]
Cc1cn(C2CC(N=[N+]=[N-])C(CO)O2)c(=O)[nH]c1=O (centres undefined) [Zidovudine]	98.2%	93.4%	93.9%	97.1%	103%	104%	13.1 min
NS(=O)(=O)Cc1noc2ccccc12 [Zonisamide]	84.8%	88.8%	88.4%	107%	103%	101%	13.1 min
